Reference: PubChem BioAssay AID1963825 (Molecular Pharmacology Branch, DTP, NCI, 2024)
pIC50: −log10 of the molar value. Several values for one entry are separate records, joined by “and”; a condition that tells them apart may be missing. Equal values may be shown once.

Assay: Anticancer human tumor 997537-175-T-J1-PDC patient-derived colon adenocarcinoma cell line growth inhibition [POLQ]
Details: 997537-175-T-J1-PDC complex spheroid viability, combination with POLQ inhibitors; for viability, T/C: stronger effect = lower value
Experimental: Multicellular complex tumor spheroid response to Polymerase (POL) inhibitors (novobiocin, ART-558, RP6685) in combination with a variety of drugs and investigational agents in selected tumor cell lines
The POL inhibitors (novobiocin, ART-558, and RP6685) were evaluated both individually and in combination with standard of care and investigational anticancer small molecules within a complex spheroid model of solid tumors. . Complex spheroids include a stromal component modeled by human endothelial cells (HUVEC) and fibroblasts modeled by human mesenchymal stem cells (MSCs). The concentration ranges selected for each drug and investigational agent were based upon clinically achievable concentrations if the clinical Cmax of the agent was known.
Compounds. The drugs and investigational agents: novobiocin (NSC847541), ART-558 (NSC835418), RP-6685 (NSC848927), peposertib (NSC802822), ceralasertib (NSC780249), elimusertib (NSC800525), camonsertib (NSC841442), AZD-1390 (NSC803789), olaparib (NSC753686), talazoparib (NSC767125), rucaparib (NSC756644), sotorasib (NSC818433), MRTX-1133 (NSC836407), SN-38 (NSC673596), topotecan (NSC609699), epotoside (NSC141540), doxorubicin (NSC123127), gemcitabine (NSC613327), 5-fluorouracil (NSC19893), paclitaxel (NSC125973), vemurafenib (NSC761431), MSA-2 (NSC828583), SN-011 (NSC837082), adavosertib (NSC754352), prexasertib (NSC758257), carboplatin (NSC241240) and oxaliplatin (NSC266046), were obtained from the National Cancer Institute (NCI) Developmental Therapeutics Program Chemical Repository (21). The FDA-approved anticancer drug set is available from the Developmental Therapeutics Program at https://dtp.cancer.gov/organization/dscb/obtaining/. […] The stock solutions were prepared in dimethyl sulfoxide (DMSO, Sigma-Aldrich, St. Louis, MO, cat. D2650), except for the platinum compounds which were prepared in saline (Quality Biological, Gaithersburg, MD, cat. 114-055-101), at 800-fold the tested concentration and stored at -70 degrees C prior to their use. All drugs and investigational agents were tested over a range starting from a high concentration at or near the clinical Cmax and decreasing in half-log increments. If the clinical Cmax for an agent had not been determined, the highest concentration tested was 10 microM, except for SN-38, which was tested at a high concentration of 1 microM.
Cell Culture. All cells were maintained in an incubator at 37 degrees C and 5% CO2 with 95% humidity. The PDC lines were cultured according to standard operating procedures established by the NCI PDMR (https://pdmr.cancer.gov). Table 3 of the manuscript, lists the cell lines along with the number of the three cell types plated to form the mct-spheroids and media for tumor cell growth. After thawing, all PDC lines, except 997537-175-T-J1-PDC and 415267-285-R-J2-PDC, were cultured in Matrigel-coated flasks prepared with a working solution of 1X Ham's F-12 nutrient mix, without supplementation (Thermo Fisher Scientific, cat. 11765054), 100 U/mL penicillin-streptomycin (Thermo Fisher Scientific, cat. 15140122), and 2.5% Matrigel (Corning Inc., Corning, NY, cat. 354248) for the first three passages. The two PDC lines 997537-175-T-J1-PDC and 415267-285-R-J2-PDC were cultured on uncoated flasks. The 857933-349-R-J2-PDC line was cultured in 6C/Colon 1B media containing advanced DMEM/F-12 (Thermo Fisher Scientific, cat. 12634028), 10 mM HEPES (Thermo Fisher Scientific, cat. 15630080), 1X GlutaMAX supplement (Thermo Fisher Scientific, cat. 35050061), 0.1 mg/mL primocin (InvivoGen, San Diego, CA, cat. ant-pm-2), 10% defined fetal bovine serum, heat inactivated (HyClone Laboratories Inc., Logan, UT, cat. SH30070.03HI), 50% L-WRN conditioned media (ATCC, cat. CRL-3276), 1.25 mM N-Acetyl-L-cysteine (Sigma-Aldrich, cat. A9165), 10 mM nicotinamide (Sigma-Aldrich, cat. N0636), 1X B-27 supplement (Thermo Fisher Scientific, cat. 17504044), 1X N-2 supplement (Thermo Fisher Scientific, cat. […]

[1] = curve of first compound, second compound 0.0316 µM
[2] = curve of first compound, second compound 0.1 µM
[3] = curve of first compound, second compound 0.316 µM
[4] = curve of first compound, second compound 1 µM
[5] = curve of first compound, second compound 3.16 µM
[6] = curve of first compound, second compound 10 µM
[7] = second compound 0.0316 µM, first compound 0.0316 µM
[8] = second compound 0.0316 µM, first compound 0.1 µM
[9] = second compound 0.0316 µM, first compound 0.316 µM
[10] = second compound 0.0316 µM, first compound 1 µM
[11] = second compound 0.0316 µM, first compound 3.16 µM
[12] = second compound 0.0316 µM, first compound 10 µM
[13] = second compound 0.1 µM, first compound 0.0316 µM
[14] = second compound 0.1 µM, first compound 0.1 µM
[15] = second compound 0.1 µM, first compound 0.316 µM
[16] = second compound 0.1 µM, first compound 1 µM
[17] = second compound 0.1 µM, first compound 3.16 µM
[18] = second compound 0.1 µM, first compound 10 µM
[19] = second compound 0.316 µM, first compound 0.0316 µM
[20] = second compound 0.316 µM, first compound 0.1 µM
[21] = second compound 0.316 µM, first compound 0.316 µM
[22] = second compound 0.316 µM, first compound 1 µM
[23] = second compound 0.316 µM, first compound 3.16 µM
[24] = second compound 0.316 µM, first compound 10 µM
[25] = second compound 1 µM, first compound 0.0316 µM
[26] = second compound 1 µM, first compound 0.1 µM
[27] = second compound 1 µM, first compound 0.316 µM
[28] = second compound 1 µM, first compound 1 µM
[29] = second compound 1 µM, first compound 3.16 µM
[30] = second compound 1 µM, first compound 10 µM
[31] = second compound 3.16 µM, first compound 0.0316 µM
[32] = second compound 3.16 µM, first compound 0.1 µM
[33] = second compound 3.16 µM, first compound 0.316 µM
[34] = second compound 3.16 µM, first compound 1 µM
[35] = second compound 3.16 µM, first compound 3.16 µM
[36] = second compound 3.16 µM, first compound 10 µM
[37] = second compound 10 µM, first compound 0.0316 µM
[38] = second compound 10 µM, first compound 0.1 µM
[39] = second compound 10 µM, first compound 0.316 µM
[40] = second compound 10 µM, first compound 1 µM
[41] = second compound 10 µM, first compound 3.16 µM
[42] = second compound 10 µM, first compound 10 µM
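Note: luminescence signal used as a surrogate for viable cells; spheroids exposed to drugs for seven days before readout.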

CCc1cc2c(N3CCc4c(cc(Cn5ccnc5)cc4-c4cn(C)nc4C(F)(F)F)C3=O)ccnc2c(OC)n1 + Cc1cccc(N(C)C(=O)C2C(O)CCN2c2nc(C)cc(C(F)(F)F)c2C#N)c1
pIC50 [1]: < 5.00
pIC50 [2]: < 5.00
pIC50 [3]: < 5.00
pIC50 [4]: < 5.00
pIC50 [5]: < 5.00
pIC50 [6]: < 5.00
viability, T/C [7]: 104%
viability, T/C [8]: 107%
viability, T/C [9]: 90.7%
viability, T/C [10]: 93.2%
viability, T/C [11]: 90.6%
viability, T/C [12]: 73.4%
viability, T/C [13]: 110%
viability, T/C [14]: 110%
viability, T/C [15]: 94.8%
viability, T/C [16]: 95.5%
viability, T/C [17]: 71%
viability, T/C [18]: 58.3%
viability, T/C [19]: 107%
viability, T/C [20]: 108%
viability, T/C [21]: 86.2%
viability, T/C [22]: 72%
viability, T/C [23]: 78.5%
viability, T/C [24]: 65.5%
viability, T/C [25]: 95.9%
viability, T/C [26]: 104%
viability, T/C [27]: 100%
viability, T/C [28]: 83.3%
viability, T/C [29]: 64.9%
viability, T/C [30]: 66.5%
viability, T/C [31]: 83.9%
viability, T/C [32]: 86.9%
viability, T/C [33]: 96.3%
viability, T/C [34]: 81.5%
viability, T/C [35]: 81.7%
viability, T/C [36]: 70.1%
viability, T/C [37]: 87.8%
viability, T/C [38]: 92.7%
viability, T/C [39]: 79.5%
viability, T/C [40]: 67.1%
viability, T/C [41]: 64.1%
viability, T/C [42]: 75.2%

Cn1ncnc1[C@H]1c2n[nH]c(=O)c3cc(F)cc(c23)N[C@@H]1c1ccc(F)cc1
viability, T/C (compound 0.000316 µM): 93.6% and 104% and 95.7%
viability, T/C (compound 0.001 µM): 114% and 96.4% and 80.4%
viability, T/C (compound 0.00316 µM): 80.6% and 115% and 106%
viability, T/C (compound 0.01 µM): 110% and 98.3% and 88.3%
viability, T/C (compound 0.0316 µM): 104% and 106% and 100%
viability, T/C (compound 0.1 µM): 94.7% and 98.2% and 90%
pIC50 (curve of compound): < 7.00

COc1cc2cc(C(=O)CCC(=O)O)sc2cc1OC + COC1C(OC(N)=O)C(O)C(Oc2ccc3c(O)c(NC(=O)c4ccc(O)c(CC=C(C)C)c4)c(=O)oc3c2C)OC1(C)C
pIC50 [1]: < 5.00
pIC50 [2]: < 5.00
pIC50 [3]: < 5.00
pIC50 [4]: < 5.00
pIC50 [5]: < 5.00
pIC50 [6]: < 5.00
viability, T/C [7]: 95.1%
viability, T/C [8]: 98.6%
viability, T/C [9]: 88.1%
viability, T/C [10]: 92.5%
viability, T/C [11]: 89.7%
viability, T/C [12]: 80.3%
viability, T/C [13]: 94.3%
viability, T/C [14]: 96.3%
viability, T/C [15]: 87.5%
viability, T/C [16]: 93.5%
viability, T/C [17]: 99.1%
viability, T/C [18]: 92.2%
viability, T/C [19]: 101%
viability, T/C [20]: 108%
viability, T/C [21]: 99.9%
viability, T/C [22]: 96.2%
viability, T/C [23]: 86.2%
viability, T/C [24]: 91.8%
viability, T/C [25]: 100%
viability, T/C [26]: 98.4%
viability, T/C [27]: 104%
viability, T/C [28]: 93.5%
viability, T/C [29]: 100%
viability, T/C [30]: 90.4%
viability, T/C [31]: 96.2%
viability, T/C [32]: 101%
viability, T/C [33]: 96.5%
viability, T/C [34]: 101%
viability, T/C [35]: 97.3%
viability, T/C [36]: 105%
viability, T/C [37]: 97.2%
viability, T/C [38]: 89.6%
viability, T/C [39]: 95.5%
viability, T/C [40]: 104%
viability, T/C [41]: 94.8%
viability, T/C [42]: 84.1%
